Test results from patent US10639287B2, “Compounds for the treatment of mitochondrial diseases” (UNIVERSITE PARIS-SUD, priority 2014, dated 2020).

System: fibroblasts from a patient with a mutation on each allele of the POLG gene
Assay: Amount of mtDNA (qPCR) in patient fibroblasts, cell growth conditions
Assay type: cell-based, human
Conditions: 2.5 μM, DMEM high glucose, harvested at 100% confluence
Protocol: Skin fibroblasts from the control and from the patient were cultured to 100% confluence in a complete Dulbecco's Modified Eagle Medium (DMEM) high glucose medium (4.5 g/L of D-glucose, 110 mg/L sodium pyruvate, 10% foetal bovine serum, 1% penicillin/streptomycin from the stock solution containing 10,000 I.U. penicillin and 10,000 μg/mL streptomycin) at 37° C. under 5% CO2. At confluence, the cultures were trypsinised and placed back in culture at 30% confluence in a complete DMEM high glucose medium supplemented with either 0.1% DMSO or with 2.5 μM clofilium tosylate. They were incubated at 37° C. under 5% CO2 and harvested at 100% confluence. The total fibroblast DNAs were extracted by the phenol-chloroform method, and the mtDNA and nuclear DNA were quantified by qPCR as described in Sarzi et al., 2007 (Sarzi, E., Bourdon, A., Chrétien, D., Zarhrate, M., Corcos, J., Slama, A., Cormier-Daire, V., De Lonlay, P., Munnich, A. and Rötig, A. (2007) Mitochondrial DNA Depletion is a Prevalent Cause of Multiple Respiratory Chain Deficiency in Childhood. J Pediatr, 105, 531-534).

CCCCCCC[N+](CC)(CC)CCCCc1ccc(Cl)cc1.Cc1ccc(S(=O)(=O)[O-])cc1 [clofilium tosylate]
amount of mtDNA, cell growth conditions: slightly increased
